The record followed here is US9266933B2, “Polypeptides inhibiting neovascularization and uses thereof” (SHANGHAI FIRST PEOPLE'S HOSPITAL, priority 2011, dated 2016).

For experiment [1], the system named is Human Umbilical Vein Endothelial Cells (HUVECs). The experiment is described as follows: Matrigel lumen formation assay of HUVECs. The format is cell-based. Particulars: VEGF + ZY3 in different concentrations (incl. 160 μM), 6 hours, compared with VEGF group; concentration-dependent; *P<0.05. As to the method: The Matrigel method was used as follows:
A 50 μl/well Matrigel (purchased from BD Co.) was added into a 96-well plate, and then the plate was incubated at 37° C. for 30 min. Upon solidification, the primary HUVECs were inoculated onto the surface of Matrigel with an inoculation concentration of 8×10^6/ml. Then the serum-free culture medium ECM as negative control, VEGF (100 ng/ml) (purchased from Sigma Co.) as positive control, VEGF (100 ng/well)+small peptide ZY3 in different concentrations as treatment groups were added in each well. The plate wad incubated at 37° C. After treating for 6 hours, photos were taken for cells in 3 randomized fields in the plate under the microscope (×200 fold.), and the sum of the maximum lumina diameter formed in the cells was calculated. Finally, SPSS11.0.1 was used for statistical analysis.

Experiment [2] has the same test system. The experiment in a line: MTS proliferation assay of VEGF-stimulated HUVECs. Particulars: VEGF + ZY3 in different concentrations, 24-hour incubation, compared with VEGF group; concentration-dependent; *P<0.05, **P<0.01. It is filed as cell-based. On the procedure:
The MTS method was used as follows:
Primary Human Umbilical Vein Endothelial Cells (HUVECs) (purchased from ScienCell Co.) were inoculated into a 96-well plate with an inoculation concentration of 2×10^4/ml. After cells had adhered to the wall, serum-free culture medium ECM was added and the cells were cultivated at 37° C. for 24 hours. Then the serum-free culture medium ECM as negative control, VEGF (100 ng/ml) (purchased from Sigma Co.) as positive control, VEGF (100 ng/well)+small peptide ZY3 in different concentrations as treatment groups were added in each well. After a 24-hour incubation, 20 μl 1 MTS solution (purchased from Promega Corporation) was added in each well. After incubation at 37° C. for 4 hours, the absorbance in each well was measured at 490 nm by using microplate reader (Bio-Rad Co.). The proliferation activity of cells was determined according to OD490. Finally, SPSS11.0.1 was used for statistical analysis.
Derived Polypeptides were prepared as follows, and the inhibition effect of each ZY3 derived polypeptides on proliferation of Human Umbilical Vein Endothelial Cells HUVECs was determined according to the methods in Example 3.
In general terms: Formazan colour is commonly taken as a measure of viable cells.

A further experiment relates to mouse cornea. The experiment is described as follows: Mouse corneal stroma micropocket model of VEGF-induced pathological angiogenesis. The format is in vivo, C57BL/6 mice. Particulars: VEGF + ZY3 low (0.5 μg/granule) and high (2 μg/granule) concentration, 5 days after operation, compared with VEGF group; **P<0.01. As to the method: Mice model of the corneal stroma micropocket was used and the methods were as follows:
Male C57BL/6 mice (4-5 week old) were intraperitoneally injected with 2% pentobarbital (about 0.1 ml/mouse) for anesthesia. 4% hydrochloric oxybuprocaine ophthalmic solution was locally administrated. Under the stereo microscope, OT syringe needle and 2 ml syringe needle were used to perform a blunt dissection between the layers of corneal stroma at 0.8-1 mm from corneoscleral limbus. A pouch of about 0.6×0.8 mm was formed. […] Neovascularization area were calculated as followed: Area (mm^2)=0.5*3.14*VL (mm)*CN*0.4 (mm) SPSS1L 0.1 was used for statistical analysis.

Experiment [3] has as its system chick embryo chorioallantoic membrane. The experiment is described as follows: Angiogenesis in chick embryo chorioallantoic membrane model. It is filed as in vivo. Particulars: low (10 μg/piece) and high (50 μg/piece) concentration on filter paper, 2 days, compared with PBS group; **P<0.01. On the procedure:
Model of chick embryo chorioallantoic membrane was used and the methods were as follows:
Upon sterilization, the chick fertile eggs of 1-2 days old (purchased from 36 Lianhuaqing Chicken Farm of Shanghai Xinghuo Farm) were placed into a thermhygrostat (purchased from Shanghai Boxun industrial Co., ltd. SPX-250C) (T=37° C., Humidity H=60-70%) to incubate for 5 days. Every day, the eggs were overturned for one time at morning and night. Onto the filter paper (Whatman quantitative filter papers, Sigma, ashless, Grade 42, Cat No 1442-042, 42.5 mm Φ×100 circles) containing cortisone acetate (5 μg/μl, 5 μl/piece), PBS (5 μl/piece), low (2 μg/μl) or high (10 μg/μl) concentration of small peptides ZY3 (5 μl/piece) were dropped respectively. After air-dried, the filter paper was placed between the major vessels on chorioallantoic membrane of fertile eggs and the eggs were sealed. The eggs were placed in the thermhygrostat (T=37° C., Humidity H=60-70%) to incubate for another 2 days (24 hours a day) without overturning. Then the chorioallantoic membrane was thoroughly exposed and photographed (the range was within 5 mm around the filter paper). The number of 3-5 subordinate microvessels in the area within 2.5 mm around the filter paper was counted. SPSS11.0.1 was used for statistical analysis.

Entries after “also recorded” stand apart in the source; their conditions may differ.

For “TANVTMQLLKIRSGDRPSYVELTFSQH (angiogenesis-inhibiting peptide ZY3)”, the “lumen formation of HUVECs (sum of maximum lumina diameter)” value in experiment [1] is listed as “significantly inhibited”. In addition, the “proliferation of HUVECs (OD490, MTS)” value in experiment [2] is given as “significantly inhibited”. Further, the “corneal angiogenesis (neovascularization area on mouse cornea)” value in the experiment with mouse cornea was “significantly inhibited”. The “angiogenesis of chick embryo chorioallantoic membrane (count of 3-5 subordinate microvessels within 2.5 mm around the filter paper)” value in experiment [3] is “significant inhabitation effects; also recorded: significantly inhibited”.
